Five compounds from PubChem BioAssay AID2060494 (Molecular Pharmacology Branch, DTP, NCI, 2025) can be followed below.

“And” between values parts separate entries of the source, which are not always exact repeats. Equal entries are not always repeated. Some results are limits rather than exact numbers.

The assay has as its system 435261-313-R-J1-PDC complex spheroid viability. Put plainly: Anticancer human tumor 435261-313-R-J1-PDC patient-derived colon adenocarcinoma cell line growth inhibition [GQUAD]. To be noted: for viability, T/C: stronger effect = lower value. In a few lines:
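Tumor cells were grown as complex spheroids with HUVEC endothelial cells and mesenchymal stem cells as stroma. G-quadruplex stabilizers were combined with targeted agents over half-log dilutions from near the clinical Cmax, or from 10 microM.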

[1] abbreviates: curve of first compound, second compound 0.0316 µM.
[2] abbreviates: curve of first compound, second compound 0.1 µM.
The mark [3] stands for this setting: curve of first compound, second compound 0.316 µM.
[4] abbreviates: curve of first compound, second compound 1 µM.
[5] abbreviates: curve of first compound, second compound 3.16 µM.
Setting [6] is: curve of first compound, second compound 10 µM.
Setting [7] is: second compound 0.0316 µM, first compound 0.0316 µM.
Setting [8] is: second compound 0.0316 µM, first compound 0.1 µM.
The mark [9] stands for this setting: second compound 0.0316 µM, first compound 0.316 µM.
[10] abbreviates: second compound 0.0316 µM, first compound 1 µM.
Setting [11] is: second compound 0.0316 µM, first compound 3.16 µM.
Where [12] appears, read: second compound 0.0316 µM, first compound 10 µM.
Setting [13] is: second compound 0.1 µM, first compound 0.0316 µM.
[14] abbreviates: second compound 0.1 µM, first compound 0.1 µM.
Setting [15] is: second compound 0.1 µM, first compound 0.316 µM.
Setting [16] is: second compound 0.1 µM, first compound 1 µM.
Where [17] appears, read: second compound 0.1 µM, first compound 3.16 µM.
Setting [18] is: second compound 0.1 µM, first compound 10 µM.
Where [19] appears, read: second compound 0.316 µM, first compound 0.0316 µM.
[20] abbreviates: second compound 0.316 µM, first compound 0.1 µM.
The mark [21] stands for this setting: second compound 0.316 µM, first compound 0.316 µM.
The mark [22] stands for this setting: second compound 0.316 µM, first compound 1 µM.
[23] abbreviates: second compound 0.316 µM, first compound 3.16 µM.
[24] abbreviates: second compound 0.316 µM, first compound 10 µM.
Setting [25] is: second compound 1 µM, first compound 0.0316 µM.
Where [26] appears, read: second compound 1 µM, first compound 0.1 µM.
Setting [27] is: second compound 1 µM, first compound 0.316 µM.
Setting [28] is: second compound 1 µM, first compound 1 µM.
Setting [29] is: second compound 1 µM, first compound 3.16 µM.
Setting [30] is: second compound 1 µM, first compound 10 µM.
The mark [31] stands for this setting: second compound 3.16 µM, first compound 0.0316 µM.
Where [32] appears, read: second compound 3.16 µM, first compound 0.1 µM.
[33] abbreviates: second compound 3.16 µM, first compound 0.316 µM.
[34] abbreviates: second compound 3.16 µM, first compound 1 µM.
Where [35] appears, read: second compound 3.16 µM, first compound 3.16 µM.
The mark [36] stands for this setting: second compound 3.16 µM, first compound 10 µM.
Where [37] appears, read: second compound 10 µM, first compound 0.0316 µM.
The mark [38] stands for this setting: second compound 10 µM, first compound 0.1 µM.
Setting [39] is: second compound 10 µM, first compound 0.316 µM.
Setting [40] is: second compound 10 µM, first compound 1 µM.
Where [41] appears, read: second compound 10 µM, first compound 3.16 µM.
Where [42] appears, read: second compound 10 µM, first compound 10 µM.

A word on the IC50: it is the concentration at which inhibition is half-maximal. The viability, T/C is the ratio of treated to control.
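Note: spheroids exposed to the agents for seven days before readout.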
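Throughout, for viability, T/C: percent of vehicle control viability with DMSO wells as 100%.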

Take `COc1ccc([C@@H](O)c2cc(-c3ncnc4cc(N5CCOCC5)ccc34)c(F)cc2Cl)nn1` + CN(C)c1ccc(Nc2c3ccc(NC(=O)CCN4CCCC4)cc3nc3cc(NC(=O)CCN4CCCC4)ccc23)cc1: the half-inhibitory concentration (IC50) under setting [1] turned out to be 4190 nM; the concentration for half-maximal inhibition (IC50) under setting [2] turned out to be 4300 nM; the half-inhibitory concentration (IC50) under setting [3] is 2380 nM; the half-maximal inhibitory concentration (IC50) under setting [4] worked out at 2270 nM; the IC50 under setting [5] is 451 nM; the IC50 under setting [6] is 134 nM. Moreover, the viability, T/C is, setting by setting: under setting [7], 99%; under setting [8], 120%; under setting [9], 108%; under setting [10], 83.9%; under setting [11], 56.6%; under setting [12], 35.8%. The viability, T/C is 107% under setting [13]; 100% under setting [14]; 85.3% under setting [15]; 68.9% under setting [16]; 57.9% under setting [17]; 35.5% under setting [18]. The viability, T/C reads like this: under setting [19], 94.3%; under setting [20], 137%; under setting [21], 79.7%; under setting [22], 63.9%; under setting [23], 55.3%; under setting [24], 26.7%. In addition, the viability, T/C under setting [25] was 72%; the viability, T/C under setting [26] is 76.4%; the viability, T/C under setting [27] was 70.9%; the viability, T/C under setting [28] is 64.5%; the viability, T/C under setting [29] was 44.2%; the viability, T/C under setting [30] was 23.9%. Besides, the viability, T/C is, setting by setting: under setting [31], 59.7%; under setting [32], 48%; under setting [33], 69%; under setting [34], 30%; under setting [35], 24.6%; under setting [36], 11.5%. The viability, T/C runs as follows: under setting [37], 56.1%; under setting [38], 59.8%; under setting [39], 26.9%; under setting [40], 14.7%; under setting [41], 8.59%; under setting [42], 5.21%.

Turning to `COc1ncnc(C2CC2)c1-c1ncc2cnn(Cc3ccc(-c4nc(C(F)(F)F)cn4C(C)C)cc3)c2n1`, the viability, T/C (compound 0.0316 µM) was 89.1% and 87.3%; the viability, T/C (compound 0.1 µM) is 75.2% and 70.5%; the viability, T/C (compound 0.316 µM) is 85.4% and 92.4%; the viability, T/C (compound 1 µM) is 113% and 83%; the viability, T/C (compound 3.16 µM) was 96.8% and 88.3%; the viability, T/C (compound 10 µM) was 84.5% and 65.8%. In addition, for the setting “curve of compound”, the half-inhibitory concentration (IC50) was over 10000 nM.

Take `CN(C)c1ccc(Nc2c3ccc(NC(=O)CCN4CCCC4)cc3nc3cc(NC(=O)CCN4CCCC4)ccc23)cc1`: the viability, T/C reads like this: (compound 3.16 µM) 63.9% [middle of 11 runs]; (compound 10 µM) 41.3% [middle of 11 runs].

With `O=c1[nH]cc(F)c(=O)[nH]1` + Cc1[nH]c2ccc(F)cc2c1-c1nc2c3cccnc3c3ncccc3c2[nH]1, the IC50 reads like this: under setting [1], over 10000 nM; under setting [2], over 10000 nM; under setting [3], over 10000 nM; under setting [4], 464 nM; under setting [5], under 31.6 nM; under setting [6], under 31.6 nM. Further, the viability, T/C reads like this: under setting [7], 112%; under setting [8], 72.3%; under setting [9], 80.1%; under setting [10], 74.5%; under setting [11], 66.2%; under setting [12], 64.9%. Besides, the viability, T/C by setting is: under setting [13], 94.7%; under setting [14], 84.2%; under setting [15], 62%; under setting [16], 72.1%; under setting [17], 64.1%; under setting [18], 61.3%. Besides, the viability, T/C runs as follows: under setting [19], 78.5%; under setting [20], 66.5%; under setting [21], 52.8%; under setting [22], 65.3%; under setting [23], 49.1%; under setting [24], 56%. Also, the viability, T/C is 53.2% under setting [25]; 75% under setting [26]; 51.9% under setting [27]; 47.9% under setting [28]; 50.2% under setting [29]; 40.6% under setting [30]. Further, the viability, T/C under setting [31] was 34.2%; the viability, T/C under setting [32] was 27.4%; the viability, T/C under setting [33] is 25.1%; the viability, T/C under setting [34] was 26.7%; the viability, T/C under setting [35] is 24.1%; the viability, T/C under setting [36] was 27.7%. For the same compound, the viability, T/C was 17.9% under setting [37]; 25.7% under setting [38]; 19% under setting [39]; 19.3% under setting [40]; 16.4% under setting [41]; 21.3% under setting [42].

For `Cc1[nH]c2ccccc2c1CCNCc1ccc(/C=C/C(=O)NO)cc1`, the viability, T/C was 95.4% and 104% (compound 0.000999 µM); 69.8% and 120% (compound 0.00316 µM); 57.5% and 73.5% (compound 0.00999 µM); 78.2% and 87.4% (compound 0.0316 µM); 38% and 48.4% (compound 0.0999 µM); 7.05% and 6.56% (compound 0.316 µM). For the setting “curve of compound”, the concentration for half-maximal inhibition (IC50) was 69 nM and 100 nM.
